Assay results reported in patent US7030139B2, “Compounds” (AstraZeneca AB, priority 2001, dated 2006).
Read-outs that look alike come from different tables or passages of the source.

Columns and labels:
hCB2 [1] = target: T1, hCB2 (Homo sapiens, UniProt P34972); assay: hCB2 GTPγS binding; type: biochemical
T1 construct: purchased BioSignal

hCB2 [2] = target: T1, hCB2; assay: hCB2 receptor binding (3H-CP55,940 displacement, membranes)
hCB2-Sf9 = target: T2, hCB2-Sf9 (Homo sapiens, UniProt P34972); assay: Ki hCB2-Sf9 binding (compounds made in a plate); conditions: Table 2, printed in the IC50 (nM) column; n = 2; measured from 2 compounds made in a plate
T2 construct: host or cells: Sf9 (inferred from the head 'hCB2-Sf9')
T2 sequence (P34972 whole entry): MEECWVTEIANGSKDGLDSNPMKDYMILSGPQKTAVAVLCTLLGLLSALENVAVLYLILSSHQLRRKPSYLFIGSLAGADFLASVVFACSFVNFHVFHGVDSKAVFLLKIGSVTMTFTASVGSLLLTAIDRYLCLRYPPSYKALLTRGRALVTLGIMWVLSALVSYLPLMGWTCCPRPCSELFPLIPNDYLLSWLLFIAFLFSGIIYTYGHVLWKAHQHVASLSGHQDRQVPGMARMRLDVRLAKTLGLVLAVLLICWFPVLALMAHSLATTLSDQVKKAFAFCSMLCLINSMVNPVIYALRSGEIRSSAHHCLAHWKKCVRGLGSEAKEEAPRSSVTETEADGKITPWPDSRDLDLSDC

T1 sequence (P34972 whole entry): as above

## CCOc1ccc(C(C)c2nc3cc(N(C)C(=O)NC(C)C)ccc3n2CC2CCCCC2)cc1 (stereo not shown) [Example 56, N-[1-(Cyclohexylmethyl)-2-[1-(4-ethoxyphenyl)ethyl]-1H-benzimidazol-5-yl]-N-methyl-N′-(1-methylethyl)-urea]
hCB2 [1]
  EC50: 1.5 nM
  Emax: 88%
hCB2 [2]; hCB2 IC50 (nM)
  IC50: 5.4 nM

## CCOc1ccc(Cc2nc3cc(N(C)C(=O)CC(C)C)cnc3n2CC2CC2)cc1 [Example 59, N-[3-(Cyclopropylmethyl)-2-[(4-ethoxyphenyl)methyl]-3H-imidazo[4,5-b]pyridin-6-yl]-N,3-dimethyl-butanamide]
hCB2 [1]
  EC50: 64 nM
  Emax: 67%
hCB2 [2]; hCB2 IC50 (nM)
  IC50: 328 nM

## CCOc1ccc(Cc2nc3cc(N(C)C(=O)NC(C)C)cnc3n2CC2CC2)cc1 [Example 60, N-[3-(Cyclopropylmethyl)-2-[(4-ethoxyphenyl)methyl]-3H-imidazo[4,5-b]pyridin-6-yl]-N-methyl-N′-(1-methylethyl)-urea]
hCB2 [2]; read-out: hCB2 IC50
  IC50: 970 nM

## CCOc1ccc(Cc2nc3cc(N(C)S(=O)(=O)c4ccccc4)cnc3n2CC2CC2)cc1 [Example 61, N-[3-(Cyclopropylmethyl)-2-[(4-ethoxyphenyl)methyl]-3H-imidazo[4,5-b]pyridin-6-yl]-N-methyl-benzenesulfonamide]
hCB2-Sf9
  Ki: 11.4 nM

## CCOc1ccc(Cc2nc3cc(N(C)C(=O)CC(C)C)ccc3n2Cc2ccsc2)cc1 [Example 47, N-[2-[(4-Ethoxyphenyl)methyl]-1-(3-thienylmethyl)1H-benzimidazol-5-yl]-N,3-dimethyl-butanamide]
hCB2 [1]
  EC50: 1.4 nM
  Emax: 70%
hCB2 [2]; hCB2 IC50 (nM)
  IC50: 3.3 nM

## CCOc1ccc(Cc2nc3cc(C(=O)N(CC)CC)ccc3n2CCC(=O)OC)cc1 [Example 5, Methyl 3-[5-[(diethylamino)carbonyl]-2-(4-ethoxybenzyl)-1H-benzimidazol-1-yl]propanoate]
hCB2 [1]
  EC50: 65 nM
hCB2 [1]; read-out: % Emax, hCB2
  Emax: 53%
hCB2 [2]
  Ki: 142 nM

## CCOc1ccc(C(C)c2nc3cc(N(C)C(=O)CC(C)C)ccc3n2CC2CC2)cc1 (stereo not shown) [Example 52, N-[1-(Cyclopropylmethyl)-2-[1-(4-ethoxyphenyl)ethyl]-1H-benzimidazol-5-yl]-N,3-dimethyl-butanamide]
hCB2 [1]
  Emax: 41%

## CCOc1ccc(Cc2nc3cc(CN4CCOCC4)ccc3n2CC2CC2)cc1 [Example 24, 1-(Cyclopropylmethyl)-2-(4-ethoxybenzyl)-5-(4-morpholinylmethyl)-1H-benzimidazole]
hCB2 [1]
  EC50: 81 nM
hCB2 [1]; read-out: % Emax, hCB2
  Emax: 62%
hCB2 [2]
  Ki: 178 nM

## CCOc1ccc(Cc2nc3cc(C(=O)N(CC)CC)ccc3n2Cc2ccsc2)cc1 [Example 40, 2-[(4-Ethoxyphenyl)methyl]-N,N-diethyl-1-(3-thienylmethyl)-1H-benzimidazole-5-carboxamide]
hCB2 [1]
  EC50: 1.2 nM
  Emax: 74%
hCB2 [2]; hCB2 IC50 (nM)
  IC50: 2.8 nM

## CCOc1ccc(Cc2nc3cc(C(=O)N(CC)CC)ccc3n2C[C@@H]2CCCO2)cc1 [Example 42]
hCB2 [1]
  EC50: 5 nM
  Emax: 76%
hCB2 [2]; hCB2 IC50 (nM)
  IC50: 23 nM

## CCOc1ccc(C(O)c2nc3cc(C(=O)N(CC)CC)ccc3n2CCC(C)C)cc1 (stereo not shown) [Example 46, 2-[(4-Ethoxyphenyl)hydroxymethyl]-N,N-diethyl-(3-methylbutyl)-1H-benzimidazole-5-carboxamide]
hCB2 [1]
  EC50: 69 nM
  Emax: 70%
hCB2 [2]; hCB2 IC50 (nM)
  IC50: 100 nM

## CCOc1ccc(Nc2nc3cc(C(=O)N(CC)CC)ccc3n2CCC(C)C)cc1 [Example 39, 2-(4-Ethoxyanilino)-N,N-diethyl-1-isopentyl-1H-benzimidazole-5-carboxamide]
hCB2 [1]
  EC50: 64 nM
hCB2 [1]; read-out: % Emax, hCB2
  Emax: 64%
hCB2 [2]
  Ki: 98 nM

## C=CCNc1ccc2c(c1)nc(Cc1ccc(OCC)cc1)n2CC1CC1 [Example 33, N-Allyl-1-(cyclopropylmethyl)2-(4-ethoxybenzyl)-1H-benzimidazol-5-amine]
hCB2 [1]; Table 1, GTPγS binding, human CB2 membranes, read-out: EC50, hCB2, nM
  EC50: 146 nM
hCB2 [1]; Table 1, GTPγS binding, maximal stimulated binding defined with 1 μM Win 55,212-2, read-out: % Emax, hCB2
  Emax: 54%
hCB2 [2]; Table 1, human CB2 membranes, 3H-CP55,940, read-out: Ki(hCB2)
  Ki: 308 nM

## CCOc1ccc(C(C)c2nc3cc(N(C)C(=O)NC(C)C)ccc3n2CC2CC2)cc1 (single isomer, unassigned; (-)) [Example 54, (−)-N-[1-(Cyclopropylmethyl)-2-[1-(4-ethoxyphenyl)ethyl]-1H-benzimidazol-5-yl]-N-methyl-N′-(1-methylethyl)-urea]
hCB2 [1]
  EC50: 3.4 nM
  Emax: 66%
hCB2 [2]; hCB2 IC50 (nM)
  IC50: 15.5 nM

## CCOc1ccc(Cc2nc3cc(NC(=O)OC)ccc3n2CC2CC2)cc1 [Example 26, Methyl-1-(cyclopropylmethyl)-2-(4-ethoxybenzyl)-1H-benzimidazol-5-yl carbamate]
hCB2 [1]
  % Emax, hCB2: 295(41%)
hCB2 [1]; read-out: EC50, hCB2, nM
  EC50: 295 nM

## CCOc1ccc(Cc2nc3cc(C(=O)N(CC)CC)ccc3n2CC2CC2)cn1 [Example 13, 1-(Cyclopropylmethyl)-2-[(6-ethoxy-3-pyridinyl)methyl]-N,N-diethyl-1H-benzimidazole-5-carboxamide]
hCB2 [1]
  EC50: 97 nM
hCB2 [1]; read-out: % Emax, hCB2
  Emax: 93%
hCB2 [2]
  Ki: 133 nM

## CCOc1ccc(Cc2nc3cc(N(C)S(=O)(=O)c4cccs4)cnc3n2CC2CC2)cc1 [Example 62, N-[3-(Cyclopropylmethyl)-2-[(4-ethoxyphenyl)methyl]-3H-imidazo[4,5-b]pyridin-6-yl]-N-methyl-2-thiophenesulfonamide]
hCB2-Sf9
  Ki: 4.5 nM

## CCOc1ccc(Cc2nc3cc(N(C)C(=O)CC(C)C)ccc3n2Cc2ccc(COC(C)=O)o2)cc1 [Example 49, N-[1-[[5-[(Acetyloxy)methyl]-2-furanyl]methyl]-2-[(4-ethoxyphenyl)methyl]-1H-benzimidazol-5-yl]-N,3-dimethyl-butanamide]
hCB2 [1]
  EC50: 6.8 nM
  Emax: 67%
hCB2 [2]; hCB2 IC50 (nM)
  IC50: 32 nM

## CCOc1ccc(C(C)c2nc3cc(N(C)C(=O)NC(C)C)ccc3n2CC2CC2)cc1 (racemic) [Example 53, (rac)-N-[1-(Cyclopropylmethyl)-2-[1-(4-ethoxyphenyl)ethyl]1H-benzimidazol-5-yl]-N-methyl-N′-(1-methylethyl)-urea]
hCB2 [1]
  EC50: 6.7 nM
  Emax: 46%
hCB2 [2]; hCB2 IC50 (nM)
  IC50: 36 nM

## CCOc1ccc(Cc2nc3cc(C(=O)N(CC)CC)cnc3n2Cc2ccc([N+](=O)[O-])s2)cc1 [Example 57, 2-[(4-Ethoxyphenyl)methyl]-N,N-diethyl-3-[(5-nitro-2-thienyl)methyl]-3H-imidazo[4,5-b]pyridine-6-carboxamide]
hCB2 [1]
  EC50: 2.8 nM
  Emax: 72%
hCB2 [2]; hCB2 IC50 (nM)
  IC50: 9.5 nM

## CCOc1ccc(C(C)c2nc3cc(N(C)C(=O)NC(C)C)ccc3n2CC2CC2)cc1 (single isomer, unassigned; (+)) [Example 55, (+)-N-[1-(Cyclopropylmethyl)-2-[1-(4-ethoxyphenyl)ethyl]-1H-benzimidazol-5-yl]-N-methyl-N′-(1-methylethyl)-urea]
hCB2 [2]; hCB2 IC50 (nM)
  IC50: 715 nM
